Assay results from patent US9034303B2, “Neuroprotective and neuro-restorative iron chelators and monoamine oxidase inhibitors and uses thereof” (priority 2010, dated 2015).
Entries after “also recorded” stand apart in the source; their conditions may differ. Like-named read-outs stand apart in the source and are kept apart here.

Columns and labels:
[1] = system: SHSY-5Y cells; assay: Cytotoxicity in presence and absence of exogenous iron, SH-SY5Y; assay type: cell-based, human
Method: The potential of compound 3 to be toxic in the presence of free iron was also tested. The iron complexation method was based on the method of Leanderson and Tagesson (Carcinogenesis, 17, 545-550, 1996) with some modifications. Iron (III) was prepared from ferric ammonium citrate (Sigma, F5879) at 80 mM in sterile distilled water. Compound 3 was prepared at a 200 mM concentration in DMSO. Before each experiment, the freshly prepared iron (III) solution was diluted to 0.4 mM in PBS II (PBS containing 0.90 mM Ca^2+ and 0.49 mM Mg^2+). Compound 3 stock solutions were diluted to 2, 0.2, and 0.02 mM with PBS II. Equal volumes of the 0.4 mM iron (III) solution and compound 3 solutions were added together to prepare iron/test article complex solutions containing 1, 0.1, and 0.01 mM compound 3 and 0.2 mM iron (III). The compound 3 DMSO stock solution was diluted in PBS II at 1, 0.1, or 0.01 mM and used as compound 3 control without iron. An equal volume of the 0.4 mM iron (III) solution was diluted in PBS II to prepare a control containing only iron.
The medium was removed from the plated cells (both cell lines) and replaced with fresh medium (90 μL). Iron/compound 3 complex or compound 3 in PBS II without iron was added to cells in triplicate (10 μL) to final compound 3 concentrations of 100, 10, and 1 μM and an iron (III) concentration of 20 μM. Wells containing no cells were used as the background control. PBS II was run as vehicle control. Iron only was run at a final concentration of 20 μM.
Cell viability was determined as described above and cytotoxicity was compared between treatments with and without iron complexation.

[2] = Stability in aqueous solution (PBS or saline) followed by HPLC; assay type: physicochemical; conditions: for Amount of compound remaining (%): 25° C., 0.5 mM
Method: (§1) Using high pressure liquid chromatography (HPLC), the stability of each of the tested compounds was determined by following its respective chemical character over time in either phosphate buffered saline (PBS) and/or 0.85% saline solution (sodium chloride). In each case, 0.5 mM of the tested compound in PBS or saline solution was incubated at 25° C. or at 37° C. for 20 hours or, in some cases, up to two days (48 hours).

[3] = Plasma stability in vitro in human blood plasma (LC-MS/MS); assay type: in vitro ADME; conditions: 10 μM, ~37° C.
Method: The stability of the compound 3 was evaluated in human blood plasma. Human plasma was purchased from a commercial source (Bioreclamation, Inc., East Meadow, N.Y.). The plasma was prepared from blood collected using sodium fluoride/potassium oxalate as the anticoagulant. The plasma was stored at −20° C. prior to use. The plasma, once thawed for use, was centrifuged at ˜4000 rpm for five minutes and transferred to a new tube to remove any precipitate. The pH of the plasma was adjusted to 7.4. Compound 3 was added to plasma samples to achieve a final concentration of 10 μM and distributed into the required number of low retention tubes (triplicate tubes for each timepoint) for incubation at ˜37° C. in a water bath. Incubations were terminated at 0, 1, and 6 hours by the addition of three volumes of cold acetonitrile. The supernate after centrifugation was subjected to LC-MS/MS analysis. Stability of the test article was assessed by comparison of the peak area at one and six hours to that at time zero.

[4] = molecular target: rat brain MAO-A (Rattus norvegicus (Rat), UniProt P21396); assay: In vitro inhibition of rat brain MAO-A (14C-5-HT substrate); assay type: biochemical
Chain of rat brain MAO-A (P21396 whole entry): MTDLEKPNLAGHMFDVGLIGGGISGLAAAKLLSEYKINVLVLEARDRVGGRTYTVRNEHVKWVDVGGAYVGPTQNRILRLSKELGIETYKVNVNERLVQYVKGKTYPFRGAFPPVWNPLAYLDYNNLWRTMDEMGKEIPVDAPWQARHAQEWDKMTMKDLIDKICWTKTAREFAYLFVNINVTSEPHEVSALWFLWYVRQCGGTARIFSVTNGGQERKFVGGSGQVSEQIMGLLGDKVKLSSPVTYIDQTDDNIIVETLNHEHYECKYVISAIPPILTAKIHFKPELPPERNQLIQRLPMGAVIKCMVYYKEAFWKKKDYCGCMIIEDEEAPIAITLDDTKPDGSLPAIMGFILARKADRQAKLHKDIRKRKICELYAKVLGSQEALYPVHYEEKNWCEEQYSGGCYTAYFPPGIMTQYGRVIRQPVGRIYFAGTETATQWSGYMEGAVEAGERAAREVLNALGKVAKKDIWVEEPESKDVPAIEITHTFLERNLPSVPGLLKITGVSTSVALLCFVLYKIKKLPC
Method: Rats are decapitated and the brains quickly taken into a weighted ice-cold sucrose buffer (0.32 M) and their weights determined. All subsequent procedures are performed at 0° C. The brains are homogenized in 0.32 M sucrose (one part tissue to 20 parts sucrose) in a Teflon glass homogenizer followed by the addition of sucrose buffer to a final concentration of 10% homogenate. The homogenates are centrifuged at 600 g for 15 min. The supernatant fractions are taken out and centrifuged at 4500 g for 30 min, the pellet diluted in 0.32 M sucrose buffer and kept frozen for later assaying of MAO. Protein concentration is determined with Bradford reagent at λ=595 nm, using BSA as a standard.
MAO-A and MAO-B activities are determined in rat brain homogenate in vitro following incubation with varying concentrations of the test compounds.
The activity of MAO-A and MAO-B was determined by the adapted method of Tipton & Youdim (Tipton K F, O'Sullivan J, Youdim M B, 1983, Encyclopedia of Neuroscience, 2004, G. Adelman and B. H. Smith, Elsevier). The test compound was added to a suitable dilution of the enzyme preparation (70 μg protein for MAO-B and 150 μg MAO-A assay) in 0.1 M phosphate buffer (pH 7.4). The mixture was incubated together with […], a specific inhibitor of MAO-B (for determination of MAO-A) or 0.05 M clorgylin, a specific inhibitor of MAO-A (for determination of MAO-B). Incubation was carried for 0.5 or 1 h at 37° C. before addition of ^14C-5-hydroxytryptamine binoxalate (5-HT) (100 or 400 μM) for determination of MAO-A, or ^14C-phenylethylamine (^14C-PEA) 100 or 400 μM for determination of MAO-B, and incubation continued for 30 min or 20 min, respectively. The reaction was stopped with 2 M ice-cold citric acid, and the metabolites were extracted and determined by liquid-scintillation counting in cpm units. […]
MAO-A and MAO-B activity was measured using radioactive substrates. The substrate for MAO-A was 5 HT and for MAO-B was PEA. When measuring the activity of MAO-A, the MAO-B activity was inhibited with deprenyl and when measuring the activity of MAO-B the activity of MAO-A was inhibited with clorgylin. Blank samples were produced using TCP to inhibit both of the enzymes. The metabolites were extracted to toluene and read in a β-counter. The results are expressed in relative activity and normalized to the amount of protein in the tissue.

[5] = Follow-up stability experiment at 37° C. in PBS; assay type: physicochemical
Method: as §1
In addition, in a follow-up experiment the instability of M30, and the stability of compounds 3, 7 and 8 was also confirmed at 37° C. in PBS, Table 2, below.

C#CCN(C)CCc1ccc(O)c2ncccc12 [Compound 3, 5-[2-(methyl-2-propyn-1-ylamino)ethyl]-8-quinolinol]
SHSY-5Y cells alive ([1]; with exogenous iron (20 μM), compound 1 μM): 100% | SHSY-5Y cell death (%) ([1]; with iron (20 μM), compound 1 μM): −1.0% | SHSY-5Y cell death (%) ([1]; with iron (20 μM), compound 10 μM): 7.6% | SHSY-5Y cell death (%) ([1]; with iron (20 μM), compound 100 μM): 90.3% | SHSY-5Y cell death (%) ([1]; without iron, compound 1 μM): 2.1% | SHSY-5Y cell death (%) ([1]; without iron, compound 10 μM): 0.8% | SHSY-5Y cell death (%) ([1]; without iron, compound 100 μM): 0.4% | Stability in aqueous solution (in words) ([2]; PBS and/or saline solution): highly stable chemically; also recorded: ^+Compound 3 was stable for up to 48 hours at 25 °C in both saline and PBS | Amount of compound remaining (%) ([2]; PBS, 0.5 hours): 100% | Amount of compound remaining (%) ([2]; PBS, 2 hours): 100% | Amount of compound remaining (%) ([2]; PBS, 20 hours): 100% | Amount of compound remaining (%) ([2]; PBS, 48 hours): 100% | Amount of compound remaining (%) ([2]; saline, 0.5 hours): 100% | Amount of compound remaining (%) ([2]; saline, 2 hours): 100% | Amount of compound remaining (%) ([2]; saline, 20 hours): 100% | Amount of compound remaining (%) ([2]; saline, 48 hours): 100% | Amount of compound 3 in human blood plasma ([3]; 0 hour, reference time point): 100% | Amount of compound 3 in human blood plasma ([3]; 1 hour): 86% | Amount of compound 3 in human blood plasma ([3]; 6 hours): 93% | IC50 [4]: 70 to 90 nM | Inhibition of rat brain MAO-A in vitro (in words) ([4]; rat brain): potent inhibitors | IC50 ([4]; read-out: MAO-A IC50, estimated from the data in FIG. 1, rat brain MAO-A): 70 to 90 nM | Amount of compound remaining (%) ([5]; 3 hours): ≧100% | Amount of compound remaining (%) ([5]; 8 hours): 95.7% | Amount of compound remaining (%) ([5]; 24 hours): ≧100% | Amount of compound remaining (%) ([5]; 48 hours): 87.2%
